Reference: ChEMBL document CHEMBL5725651, “Guanine analogs as telomerase substrates and telomere length affectors” (2018)

Assay: HT3 cells were treated for three days with increasing concentrations of PMPG-diisopropyloxy ester ranging from 0.2 μM to 20 μM. Cells (HT3 RPMI+10% PBS) were incubated with compound for 24 hr after which PSTS primer (phosphorothioate-d(AATCCGTCGAGCAGAGTT (SEQ ID NO: 6) containing a 5′ Cy-5 label) (7.5 μM) and fresh compound are added for an additional 24 hr. Cells were lysed and endogenous telomerase inactivated by heating (15 min, 75° C.). Products were amplified by 30 cycles of PCR under TRAP conditions set forth above and quantified.
Conditions: HT-3

EC50	SMILES
2.15 µM	CC(C)OC(=O)OCOP(=O)(COC(C)Cn1cnc2c(=O)[nH]c(N)nc21)OCOC(=O)OC(C)C (configuration not stated)
10.8 µM	C=C(COCP(=O)(OCOC(=O)OC(C)C)OCOC(=O)OC(C)C)Cn1cnc2c(=O)[nH]c(N)nc21
